Patent US9137998B2, “Pesticidal compositions and related methods” (DOW AGROSCIENCES LLC, priority 2013, dated 2015)

Experiments:
[1] = test system: Green Peach Aphid (Myzus persicae) (GPA) (MYZUPE); assay: Bioassay for Green Peach Aphid (GPA), foliar spray on cabbage seedlings; assay type: in vivo; conditions: 200 ppm foliar spray, graded after three days, Abbott corrected % control; for mortality at 200 ppm: Myzus persicae, 72 h, read-out: % Control (or Mortality) rating, GPA
Protocol: Cabbage seedlings grown in 3-inch pots, with 2-3 small (3-5 cm) true leaves, were used as test substrate. The seedlings were infested with 20-50 GPA (wingless adult and nymph stages) one day prior to chemical application. Four pots with individual seedlings were used for each treatment. Test compounds (2 mg) were dissolved in 2 mL of acetone/methanol (1:1) solvent, forming stock solutions of 1000 ppm test compound. The stock solutions were diluted 5× with 0.025% Tween 20 in H2O to obtain the solution at 200 ppm test compound. A hand-held aspirator-type sprayer was used for spraying a solution to both sides of […] leaves until runoff. Reference plants (solvent check) were sprayed with the diluent only containing 20% by volume of acetone/methanol (1:1) solvent. Treated plants were held in a holding room for three days at approximately 25° C. and ambient relative humidity (RH) prior to grading. Evaluation was conducted by counting the number of live aphids per plant under a microscope. Percent control was measured by using Abbott's correction formula (W. S. Abbott, “A Method of Computing the Effectiveness of an Insecticide” J. Econ. Entomol. 18 (1925), pp. 265-267) as follows. Corrected % Control=100*(X−Y)/X
X=No. of live aphids on solvent check plants and
Y=No. of live aphids on treated plants
Biological Data for Green Peach Aphid (GPA) (MYZUPE) and Sweetpotato Whitefly-crawler (WF) (BEMITA)” (See Table Section).

[2] = test system: Sweetpotato Whitefly-Crawler (Bemisia tabaci) (WF) (BEMITA); assay: Insecticidal test for Sweetpotato Whitefly-crawler (WF) in foliar spray assay on cotton plants; assay type: in vivo; conditions: 200 ppm foliar spray, graded after 9 days, Abbott corrected % control; for mortality at 200 ppm: Bemisia tabaci, 216 h, read-out: % Control (or Mortality) rating, WF
Protocol: Cotton plants (Gossypium hirsutum) grown in 3-inch pots, with 1 small (4-5 cm) true leaves, were used as test substrate. The plants were infested with 200-400 whitefly eggs 4-5 days prior to chemical application. Four pots with individual plants were used for each treatment. Test compounds (2 mg) were dissolved in 1 mL of acetone solvent, forming stock solutions of 2000 ppm test compound. The stock solutions were diluted 10× with 0.025% Tween 20 in H2O (diluents) to obtain the solution at 200 ppm test compound. A hand-held aspirator-type sprayer was used for spraying a solution to both sides of cotton leaves until runoff. Reference plants (solvent check) were sprayed with the diluent only containing 10% by volume of acetone solvent. Treated plants were held in a holding room for 9 days at approximately 25° C. and ambient relative humidity (RH) prior to grading. Evaluation was conducted by counting the number of live 3-4 nymph stage per plant under a microscope. Percent control was measured by using Abbott's correction formula (W. S. Abbott, “A Method of Computing the Effectiveness of an Insecticide” J. Econ. Entomol. 18 (1925), pp. 265-26′7) as follows. Corrected % Control=100*(X−Y)/X
X=No. of live nymphs on solvent check plants and
Y=No. of live nymphs on treated plants. […]

C#CCN(C(=O)CCSCC1CC1(F)F)c1sc(-c2cccnc2)nc1Cl (centres unmarked) [Compound F8, N-(4-Chloro-2-(pyridin-3-yl)thiazol-5-yl)-3--(((2,2-difluorocyclopropyl)methyl)thio)-N-(prop-2-yn-1-yl)propanamide]
mortality at 200 ppm [1]: 80 to 100%
mortality at 200 ppm [2]: 80 to 100%

4-Chloro-2-(5-fluoropyridin-3-yl)-N-(prop-2-yn-1-yl)thiazol-5-amine hydrochloride [CA1]
% Control (or Mortality) rating, GPA [1]: B (More than 0-Less than 80)
% Control (or Mortality) rating, WF [2]: B (More than 0-Less than 80)

C#CCN(C(=O)CCSCCC(F)(F)F)c1sc(-c2cncc(F)c2)nc1C [Compound P19, N-(2-(5-Fluoropyridin-3-yl)-4-methylthiazol-5-yl)-N-(prop-2-yn-1-yl)-3-((3,3,3-trifluoropropyl)thio)propanamide]
mortality at 200 ppm [1]: 80 to 100%
mortality at 200 ppm [2]: 80 to 100%

C#CCN(C(=O)CCSCCC(F)(F)F)c1sc(-c2cccnc2)nc1C [Compound P6, N-(4-Methyl-2-(pyridin-3-yl)thiazol-5-yl)-N-(prop-2-yn-1-yl)-3-((3,3,3-trifluoropropyl)thio) propanamide]
mortality at 200 ppm [2]: 80 to 100%

C#CCN(C(=O)CCSCCC(F)(F)F)c1sc(-c2cncc(F)c2)nc1Cl [FA2, N-(4-Chloro-2-(5-fluoropyridin-3-yl)thiazol-5-yl)-N-(prop-2-yn-1-yl)-3-((3,3,3-trifluoropropyl)thio)propanamide]
mortality at 200 ppm [1]: 80 to 100%
mortality at 200 ppm [2]: 80 to 100%

C#CC(C)N(C(=O)CCSCCC(F)(F)F)c1sc(-c2cccnc2)nc1C (centres unmarked) [Compound P32, N-(But-3-yn-2-yl)-N-(4-methyl-2-(pyridin-3-yl)thiazol-5-yl)-3-((3,3,3-trifluoropropyl)thio) propanamide]
mortality at 200 ppm [1]: 80 to 100%
mortality at 200 ppm [2]: 80 to 100%

CC#CCN(C(=O)OC(C)(C)C)c1sc(Br)nc1C [CA6, tert-Butyl (2-bromo-4-methylthiazol-5-yl)(but-2-yn-1-yl)carbamate]
mortality at 200 ppm [1]: 0 to 80%
mortality at 200 ppm [2]: < 0%

CC#CCN(C(=O)CCSCC1CC1(F)F)c1sc(-c2cccnc2)nc1C (centres unmarked) [FA14, N-(But-2-yn-1-yl)-3-(((2,2-difluorocyclopropyl)methyl)thio)-N-(4-methyl-2-(pyridin-3-yl)thiazol-5-yl)propanamide]
mortality at 200 ppm [1]: 80 to 100%
mortality at 200 ppm [2]: 80 to 100%

CC#CCN(C(=O)CCSC)c1sc(-c2cccnc2)nc1C [Compound P17, N-(But-2-yn-1-yl)-N-(4-methyl-2-(pyridin-3-yl)thiazol-5-yl)-3-(methylthio)propanamide]
mortality at 200 ppm [1]: 80 to 100%
mortality at 200 ppm [2]: 80 to 100%

C#CCN(C(=O)CCSC)c1sc(-c2cncc(F)c2)nc1C [FA4, N-(2-(5-Fluoropyridin-3-yl)-4-methylthiazol-5-yl)-3-(methylthio)-N-(prop-2-yn-1-yl)propanamide]
mortality at 200 ppm [1]: 80 to 100%
mortality at 200 ppm [2]: 80 to 100%

C#CCN(C(=O)CC[S+]([O-])CCC(F)(F)F)c1sc(-c2cncc(F)c2)nc1Cl (centres unmarked) [FA7, N-(4-Chloro-2-(5-fluoropyridin-3-yl)thiazol-5-yl)-N-(prop-2-yn-1-yl)-3-((3,3,3-trifluoropropyl)sulfinyl)propanamide]
mortality at 200 ppm [1]: 80 to 100%
mortality at 200 ppm [2]: 80 to 100%

C#CCNc1sc(-c2cccnc2)nc1C [CA14, 4-Methyl-N-(prop-2-yn-1-yl)-2-(pyridin-3-yl)thiazol-5-amine]
mortality at 200 ppm [1]: 0 to 80%
mortality at 200 ppm [2]: 0 to 80%

C#CCN(C(=O)C1CC1(F)F)c1sc(-c2cccnc2)nc1Cl (centres unmarked) [Compound F5, N-(4-chloro-2-(pyridin-3-yl)thiazol-5-yl)-2,2-difluoro-N-(prop-2-yn-1-yl)cyclopropanecarboxamide]
mortality at 200 ppm [1]: 80 to 100%
mortality at 200 ppm [2]: 80 to 100%

C#CCN(C(=O)C(C)CSC)c1sc(-c2cccnc2)nc1Cl (centres unmarked) [Compound F9, N-(4-chloro-2-(pyridin-3-yl)thiazol-5-yl)-2-methyl-3-(methylthio)-N-(prop-2-yn-1-yl)propanamide]
mortality at 200 ppm [1]: 80 to 100%
mortality at 200 ppm [2]: 80 to 100%

C#CCN(C(=O)CCS(=O)(=O)CCC(F)(F)F)c1sc(-c2cccnc2)nc1Cl [FA10, N-(4-chloro-2-(pyridin-3-yl)thiazol-5-yl)-N-(prop-2-yn-1-yl)-3-((3,3,3-trifluoropropyl)sulfonyl)propanamide]
mortality at 200 ppm [1]: 80 to 100%
mortality at 200 ppm [2]: 80 to 100%

C#CCN(C(=O)CCSCCC(F)(F)F)c1sc(-c2cncnc2)nc1Cl [FA3, N-(4-chloro-2-(pyrimidin-5-yl)thiazol-5-yl)-N-(prop-2-yn-1-yl)-3-((3,3,3-trifluoropropyl)thio)propanamide]
mortality at 200 ppm [1]: 80 to 100%
mortality at 200 ppm [2]: 80 to 100%

C#CCN(C(=O)OC(C)(C)C)c1sc(-c2cncc(F)c2)nc1C [CA8, tert-Butyl (2-(5-fluoropyridin-3-yl)-4-methylthiazol-5-yl)(prop-2-yn-1-yl) carbamate]
mortality at 200 ppm [1]: 0 to 80%
mortality at 200 ppm [2]: 80 to 100%

C#CC(C)N(C(=O)OC(C)(C)C)c1sc(Br)nc1C (centres unmarked) [CA5, tert-butyl (2-bromo-4-methylthiazol-5-yl)(but-3-yn-2-yl)carbamate]
mortality at 200 ppm [1]: 0 to 80%
mortality at 200 ppm [2]: 0 to 80%

C#CCN(C(=O)CCSCC1CC1(F)F)c1sc(-c2cncc(F)c2)nc1C (centres unmarked) [Compound P22, 3-(((2,2-Difluorocyclopropyl)methyl)thio)-N-(2-(5-fluoropyridin-3-yl)-4-methylthiazol-5-yl)-N-(prop-2-yn-1-yl)propanamide]
mortality at 200 ppm [1]: 80 to 100%
mortality at 200 ppm [2]: 80 to 100%

C#CCN(C(=O)CCS(=O)(=O)CCC(F)(F)F)c1sc(-c2cncc(F)c2)nc1Cl [FA11, N-(4-Chloro-2-(5-fluoropyridin-3-yl)thiazol-5-yl)-N-(prop-2-yn-1-yl)-3-((3,3,3-trifluoropropyl)sulfonyl)propanamide]
mortality at 200 ppm [1]: 80 to 100%
mortality at 200 ppm [2]: 80 to 100%

C#CCN(C(=O)CCS(C)(=O)=O)c1sc(-c2cccnc2)nc1C [Compound P4, N-(4-Methyl-2-(pyridin-3-yl)thiazol-5-yl)-3-(methylsulfonyl)-N-(prop-2-yn-1-yl)propanamide]
mortality at 200 ppm [1]: 80 to 100%
mortality at 200 ppm [2]: 80 to 100%

C#CCN(C(=O)C1CC1)c1sc(-c2cccnc2)nc1Cl [Compound F2, N-(4-Chloro-2-(pyridin-3-yl)thiazol-5-yl)-N-(prop-2-yn-1-yl)cyclopropane carboxamide]
mortality at 200 ppm [1]: 80 to 100%
mortality at 200 ppm [2]: 80 to 100%

C#CCN(C(=O)CCSC)c1sc(-c2cccnc2)nc1Cl [Compound F7, N-(4-chloro-2-(pyridin-3-yl)thiazol-5-yl)-3-(methylthio)-N-(prop-2-yn-1-yl)propanamide]
mortality at 200 ppm [1]: 80 to 100%
mortality at 200 ppm [2]: 80 to 100%

C#CCN(C(=O)CC(SC)C(F)(F)F)c1sc(-c2cccnc2)nc1Cl (centres unmarked) [Compound F3, N-(4-Chloro-2-(pyridin-3-yl)thiazol-5-yl)-4,4,4-trifluoro-3-(methylthio)-N-(prop-2-yn-1-yl) butanamide]
mortality at 200 ppm [1]: 80 to 100%
mortality at 200 ppm [2]: 80 to 100%

C#CCN(C(=O)CCSC)c1sc(-c2cccnc2)nc1C [Compound P1, N-(4-Methyl-2-(pyridin-3-yl)thiazol-5-yl)-3-(methylthio)-N-(prop-2-yn-1-yl)propanamide]
mortality at 200 ppm [1]: 80 to 100%
mortality at 200 ppm [2]: 80 to 100%

C#CCN(C(=O)OC(C)(C)C)c1sc(Cl)nc1Cl [CA3, tert-butyl (2,4-dichlorothiazol-5-yl)(prop-2-yn-1-yl)carbamate]
mortality at 200 ppm [1]: < 0%
